Source: patent publication US7998965B2, “Glutamate aggrecanase inhibitors” (Wyeth LLC, priority 2005, dated 2011)
Like-named read-outs stand apart in the source and are kept apart here.

How the values were obtained:
[1] = biological target: T1, purified recombinant human Aggrecanase-1 (rAgg1) (Homo sapiens, UniProt O75173); experiment: In vitro fluorescence screen for Aggrecanase-1 inhibitors; assay type: biochemical; parameters: Agg1 % at concentration: scale not given here; settings: for IC50: read-out: Agg1 IC50; for Ki: read-out: Ki Agg1
T1 sequence (O75173 213-837): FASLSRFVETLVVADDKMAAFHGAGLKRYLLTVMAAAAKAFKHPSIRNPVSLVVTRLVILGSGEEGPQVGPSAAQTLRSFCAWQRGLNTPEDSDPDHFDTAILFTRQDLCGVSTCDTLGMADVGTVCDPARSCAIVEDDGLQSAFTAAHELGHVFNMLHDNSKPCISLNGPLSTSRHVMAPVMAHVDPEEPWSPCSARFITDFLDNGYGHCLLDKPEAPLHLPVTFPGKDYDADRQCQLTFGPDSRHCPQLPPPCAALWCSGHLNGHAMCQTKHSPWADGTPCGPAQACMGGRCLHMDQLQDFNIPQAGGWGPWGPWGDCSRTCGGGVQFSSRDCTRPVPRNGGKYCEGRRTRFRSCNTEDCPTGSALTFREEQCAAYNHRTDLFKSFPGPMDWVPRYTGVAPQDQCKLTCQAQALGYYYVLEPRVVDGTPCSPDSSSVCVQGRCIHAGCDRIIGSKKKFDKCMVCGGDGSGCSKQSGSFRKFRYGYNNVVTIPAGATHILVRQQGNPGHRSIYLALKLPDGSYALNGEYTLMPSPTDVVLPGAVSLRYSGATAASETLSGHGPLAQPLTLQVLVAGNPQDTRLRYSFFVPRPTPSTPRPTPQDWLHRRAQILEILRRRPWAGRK

[2] = biological target: T2, purified recombinant human Aggrecanase-2 (Ag2t-Phe628-Strep) (Homo sapiens, UniProt Q9UNA0); experiment: In vitro fluorescence screen for Aggrecanase-2 inhibitors; assay type: biochemical; settings: for IC50: read-out: Agg 2 IC50; for Ki: read-out: Ki Agg2
T2 construct: the form used is denoted as Ag2t-Phe628-Strep (MW=41,737)
T2 sequence (Q9UNA0 262-628): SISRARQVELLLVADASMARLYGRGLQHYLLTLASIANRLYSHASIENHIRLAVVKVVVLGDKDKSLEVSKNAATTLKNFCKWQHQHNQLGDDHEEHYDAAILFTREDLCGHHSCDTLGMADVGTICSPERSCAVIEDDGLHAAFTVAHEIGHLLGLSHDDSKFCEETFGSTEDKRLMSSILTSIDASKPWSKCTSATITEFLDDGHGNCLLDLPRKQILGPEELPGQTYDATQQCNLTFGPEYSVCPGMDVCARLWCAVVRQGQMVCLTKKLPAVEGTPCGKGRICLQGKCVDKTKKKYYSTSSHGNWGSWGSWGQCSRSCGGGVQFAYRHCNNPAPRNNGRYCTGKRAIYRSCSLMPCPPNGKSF

[3] = read-out: Agg 2 % at concentration

IC50 ([1]; Table 3) [nM] | IC50 ([2]; Table 3) [nM] | Structure (SMILES) | other results
< 30 | 60 to 200 | CC(C)(Cc1ccccc1)NC(=O)[C@H](CCC(=O)O)NC(=O)c1ccc(-c2cccs2)cc1 [N-(1,1-dimethyl-2-phenylethyl)-N^2-[4-(2-thienyl)benzoyl]-L-α-glutamine] | Ki ([1]; Table 3): < 3 nM; Ki ([2]; Table 3): 38 nM
 | 7200 | CC(C)(Cc1ccccc1)NC(=O)[C@H](CCC(=O)O)NC(=O)c1ccc(-c2cccnc2)s1 [N-(1,1-dimethyl-2-phenylethyl)-N^2-[(5-pyridin-3-yl-2-thienyl)carbonyl]-L-α-glutamine] | Agg1 % at concentration ([1]; Table 3, at 70 (nM)): 57% 70
< 30 | 3300 | CC(C)(Cc1ccccc1)NC(=O)[C@H](CCC(=O)O)NC(=O)c1ccc(-c2ccncc2)s1 [N-(1,1-dimethyl-2-phenylethyl)-N^2-[(5-pyridin-4-yl-2-thienyl)carbonyl]-L-α-glutamine] | 
100 | 700 | CC(C)(Cc1ccccc1)NC(=O)[C@H](CCC(=O)O)NC(=O)c1ccc(-c2ccccc2)nc1 [N-(1,1-dimethyl-2-phenylethyl)-N^2-[(6-phenylpyridin-3-yl)carbonyl]-L-α-glutamine] | 
< 30 | 70 to 200 | COc1cccc(-c2ccc(C(=O)N[C@@H](CCC(=O)O)C(=O)NC(C)(C)Cc3ccccc3)s2)c1 [N-(1,1-dimethyl-2-phenylethyl)-N^2-{[5-(3-methoxyphenyl)-2-thienyl]carbonyl}-L-α-glutamine] | Ki ([1]; Table 3): < 3 nM; Ki ([2]; Table 3): 151 nM
> 25000 | > 100000 | CC(C)(Cc1ccc(Cl)cc1)NC(=O)[C@H](CCC(=O)O)NC(=O)c1sccc1-c1ccccc1 [N-[2-(4-chlorophenyl)-1,1-dimethylethyl]-N^2-[(3-phenyl-2-thienyl)carbonyl]-L-α-glutamine] | 
< 30 | 60 to 200 | CC(C)(Cc1ccc(F)cc1)NC(=O)[C@H](CCC(=O)O)NC(=O)c1ccc(-c2ccccc2)s1 [N-[2-(4-fluorophenyl)-1,1-dimethylethyl]-N^2-[(5-phenyl-2-thienyl)carbonyl]-L-α-glutamine] | Ki ([1]; Table 3): 3.8 nM; Ki ([2]; Table 3): 79 nM
50 | 1000 | CC(C)(Cc1ccc(F)cc1)NC(=O)[C@H](CCC(=O)O)NC(=O)c1ccc(-c2ccccc2)nc1 [N-[2-(4-fluorophenyl)-1,1-dimethylethyl]-N^2-[(6-phenylpyridin-3-yl)carbonyl]-L-α-glutamine] | 
< 30 | 200 to 600 | CC(C)(Cc1ccccc1)NC(=O)[C@H](CCC(=O)O)NC(=O)c1ccc(-c2cccs2)s1 [N^2-(2,2′-bithien-5-ylcarbonyl)-N-(1,1-dimethyl-2-phenylethyl)-L-α-glutamine] | 

The remaining lines, values behind:

Structure (SMILES) | IC50 ([1]; Table 3) [nM] | IC50 ([2]; Table 3) [nM] | other results
COc1cccc(COc2ccc(-c3ccc(C(=O)N[C@@H](CCC(=O)O)C(=O)NCc4cc(OC)c(OC)c(OC)c4)cc3)cc2)c1 [Example 19H, N^2-({4′-[(3-methoxybenzyl)oxy]biphenyl-4-yl}carbonyl)-N-(3,4,5-trimethoxybenzyl)-L-α-glutamine] |  |  | IC50 ([1]; Table 2): 69 nM; IC50 ([2]; Table 2): 158 nM
CC(C)(Cc1ccccc1)NC(=O)[C@H](CCC(=O)O)NC(=O)c1ccc(-c2ccccc2)o1 [N-(1,1-dimethyl-2-phenylethyl)-N^2-(5-phenyl-2-furoyl)-L-α-glutamine] |  |  | Agg1 % at concentration ([1]; Table 3, at 8300 (nM)): 30%; Agg 2 % at concentration ([2]; Table 3, at 25000 (nM)): 28%
CC(C)(Cc1ccccc1)NC(=O)[C@H](CCC(=O)O)NC(=O)c1ccc(-c2nccs2)cc1 [N-(1,1-dimethyl-2-phenylethyl)-N^2-[4-(1,3-thiazol-2-yl)benzoyl]-L-α-glutamine] | 270 |  | inhibition at 25 µM [2, 3]: 62%
CC(C)(Cc1ccccc1)NC(=O)[C@H](CCC(=O)O)NC(=O)c1ccc(-c2ccc(C=O)s2)cc1 [N-(1,1-dimethyl-2-phenylethyl)-N^2-[4-(5-formyl-2-thienyl)benzoyl]-L-α-glutamine] | < 30 | 500 | 
CC(C)(Cc1ccc(Cl)cc1)NC(=O)[C@H](CCC(=O)O)NC(=O)c1ccc(-c2ccccc2)o1 [N-[2-(4-chlorophenyl)-1,1-dimethylethyl]-N^2-(5-phenyl-2-furoyl)-L-α-glutamine] |  |  | Agg1 % at concentration ([1]; Table 3, at 16700 (nM)): 60%; Agg 2 % at concentration ([2]; Table 3, at 50000 (nM)): 50%
CC(C)(Cc1ccc(Cl)cc1)NC(=O)[C@H](CCC(=O)O)NC(=O)c1cccc(-c2cccs2)c1 [N-[2-(4-chlorophenyl)-1,1-dimethylethyl]-N^2-[3-(2-thienyl)benzoyl]-L-α-glutamine] |  |  | Agg1 % at concentration ([1]; Table 3, at 25000 (nM)): 16%; Agg 2 % at concentration ([2]; Table 3, at 25000 (nM)): 10%
CC(C)(Cc1ccc(Cl)cc1)NC(=O)[C@H](CCC(=O)O)NC(=O)c1ccc(-c2nccs2)cc1 [N-[2-(4-chlorophenyl)-1,1-dimethylethyl]-N^2-[4-(1,3-thiazol-2-yl)benzoyl]-L-α-glutamine] | 1200 |  | inhibition at 2.5 µM [2, 3]: 50%
CC(C)(Cc1ccc(Cl)cc1)NC(=O)[C@H](CCC(=O)O)NC(=O)c1ccc(-c2ccc3c(c2)OCC3)cc1 [N-[2-(4-chlorophenyl)-1,1-dimethylethyl]-N^2-[4-(2,3-dihydro-1-benzofuran-6-yl)benzoyl]-L-α-glutamine] |  | 90 to 270 | Agg1 % at concentration ([1]; Table 3, at 200 (nM)): 65%
CC(C)(Cc1ccc(Cl)cc1)NC(=O)[C@H](CCC(=O)O)NC(=O)c1ccc(-c2ccc(Cl)s2)cc1 [N-[2-(4-chlorophenyl)-1,1-dimethylethyl]-N^2-[4-(5-chloro-2-thienyl)benzoyl]-L-α-glutamine] | < 30 | 70 to 200 | Ki ([1]; Table 3): 5.4 nM; Ki ([2]; Table 3): 51 nM
CC(C)(Cc1ccc(Cl)cc1)NC(=O)[C@H](CCC(=O)O)NC(=O)c1ccc(-c2ccc(C=O)s2)cc1 [N-[2-(4-chlorophenyl)-1,1-dimethylethyl]-N^2-[4-(5-formyl-2-thienyl)benzoyl]-L-α-glutamine] | < 30 | 900 | 
CC(C)(Cc1ccc(Cl)cc1)NC(=O)[C@H](CCC(=O)O)NC(=O)c1ccc(-c2ccncc2)s1 [N-[2-(4-chlorophenyl)-1,1-dimethylethyl]-N^2-[(5-pyridin-4-yl-2-thienyl)carbonyl]-L-α-glutamine] | 40 | 3400 | 
CC(C)(Cc1ccc(Cl)cc1)NC(=O)[C@H](CCC(=O)O)NC(=O)c1ccc(-c2ccc(Cl)cc2)s1 [N-[2-(4-chlorophenyl)-1,1-dimethylethyl]-N^2-{[5-(4-chlorophenyl)-2-thienyl]carbonyl}-L-α-glutamine] | < 30 | > 300 | 
CC(C)(Cc1ccc(Cl)cc1)NC(=O)[C@H](CCC(=O)O)NC(=O)c1ccc(-c2ccc(F)cc2)s1 [N-[2-(4-chlorophenyl)-1,1-dimethylethyl]-N^2-{[5-(4-fluorophenyl)-2-thienyl]carbonyl}-L-α-glutamine] | < 30 | 30 to 100 | Ki ([1]; Table 3): < 3 nM; Ki ([2]; Table 3): 87 nM
CC(C)(Cc1ccc(Cl)cc1)NC(=O)[C@H](CCC(=O)O)NC(=O)c1ccc(-c2ccc(Cl)s2)nc1 [N-[2-(4-chlorophenyl)-1,1-dimethylethyl]-N^2-{[6-(5-chloro-2-thienyl)pyridin-3-yl]carbonyl}-L-α-glutamine] | 20 to 70 | 100 to 300 | Ki ([1]; Table 3): 40.6 nM; Ki ([2]; Table 3): 526 nM
COc1cccc(-c2ccc(C(=O)N[C@@H](CCC(=O)O)C(=O)NC(C)(C)Cc3ccc(F)cc3)s2)c1 [N-[2-(4-fluorophenyl)-1,1-dimethylethyl]-N^2-{[5-(3-methoxyphenyl)-2-thienyl]carbonyl}-L-α-glutamine] | < 30 | 100 to 300 | Ki ([1]; Table 3): 6.2 nM; Ki ([2]; Table 3): 143 nM
COc1cccc(-c2ccc(C(=O)N[C@@H](CCC(=O)O)C(=O)NC(C)(C)Cc3ccc(F)cc3)cn2)c1 [N-[2-(4-fluorophenyl)-1,1-dimethylethyl]-N^2-{[6-(3-methoxyphenyl)pyridin-3-yl]carbonyl}-L-α-glutamine] | 140 | 5200 | 
CC(C)(Cc1ccc(Cl)cc1)NC(=O)[C@H](CCC(=O)O)NC(=O)c1ccc(-c2cccs2)s1 [N^2-(2,2′-bithien-5-ylcarbonyl)-N-[2-(4-chlorophenyl)-1,1-dimethylethyl]-L-α-glutamine] | < 30 | 600 to 1800 | Ki ([1]; Table 3): 86 nM; Ki ([2]; Table 3): 1150 nM
CC(C)(Cc1ccc(F)cc1)NC(=O)[C@H](CCC(=O)O)NC(=O)c1ccc(Br)cc1 [N^2-(4-bromobenzoyl)-N-[2-(4-fluorophenyl)-1,1-dimethylethyl]-L-α-glutamine] | 1040 | 7400 | 
